The assay has as its target T1, EGFR T790M/L858R (NCI-H1975 cells) (Homo sapiens, UniProt P00533, L858R/T790M).
T1 construct: NCI-H1975 (harboring EGFR heterozygous T790M/L858R mutations); host or cells: NCI-H1975
Nature of the assay: EGFR (L858R) degradation analysis, Total EGFR (L858R) HTRF, NCI-H1975 cells. Type of assay: cell-based. The note with it: 6 hours. From the text:
NCI-H1975 (harboring EGFR heterozygous T790M/L858R mutations) and NCI-H3255 (harboring EGFR heterozygous L858R mutation) were purchased from ATCC and NCI, respectively. NCI-H1975+CS (harboring EGFR heterozygous T/790M/L858R/C797S mutations) was generated using CRISPR technology to introduce the additional C797S mutation by Horizon Discovery. RPMI 1640 no-phenol red medium and fetal bovine serum (FBS) were purchased from Gibco (Grand Island, NY, USA). Cell culture flasks and 384-well microplates were acquired from VWR (Radnor, PA, USA). Total EGFR (L858R) HTRF assay kits were purchased from Cisbio (Bedford, MA, USA).
Degradation of EGFR protein containing L858R mutation was determined based on quantification of FRET signal using Total EGFR (L858R) HTRF assay kit. Test compounds were added to the 384-well plate from a top concentration of 10 μM with 11 points, half log titration in duplicates. NCI-H1975, NCI-H1975+CS or NCI-H3255 cells were added into 384-well plates at a cell density of 10000, 10000 or 1000 cells per well, respectively. The plates were kept at 37° C. with 5% CO2 for 6 hours. Cells treated in the absence of the test compound were the negative control. Positive control was set by wells containing all reagents but no cells. FRET signal was acquired on EnVision™ Multilabel Reader (PerkinElmer, Santa Clara, CA, USA).

What is called DC50 is the concentration giving 50% degradation. Read a high DC50 as degradation only at high concentration.

T1 sequence (P00533 25-1210 T790M/L858R): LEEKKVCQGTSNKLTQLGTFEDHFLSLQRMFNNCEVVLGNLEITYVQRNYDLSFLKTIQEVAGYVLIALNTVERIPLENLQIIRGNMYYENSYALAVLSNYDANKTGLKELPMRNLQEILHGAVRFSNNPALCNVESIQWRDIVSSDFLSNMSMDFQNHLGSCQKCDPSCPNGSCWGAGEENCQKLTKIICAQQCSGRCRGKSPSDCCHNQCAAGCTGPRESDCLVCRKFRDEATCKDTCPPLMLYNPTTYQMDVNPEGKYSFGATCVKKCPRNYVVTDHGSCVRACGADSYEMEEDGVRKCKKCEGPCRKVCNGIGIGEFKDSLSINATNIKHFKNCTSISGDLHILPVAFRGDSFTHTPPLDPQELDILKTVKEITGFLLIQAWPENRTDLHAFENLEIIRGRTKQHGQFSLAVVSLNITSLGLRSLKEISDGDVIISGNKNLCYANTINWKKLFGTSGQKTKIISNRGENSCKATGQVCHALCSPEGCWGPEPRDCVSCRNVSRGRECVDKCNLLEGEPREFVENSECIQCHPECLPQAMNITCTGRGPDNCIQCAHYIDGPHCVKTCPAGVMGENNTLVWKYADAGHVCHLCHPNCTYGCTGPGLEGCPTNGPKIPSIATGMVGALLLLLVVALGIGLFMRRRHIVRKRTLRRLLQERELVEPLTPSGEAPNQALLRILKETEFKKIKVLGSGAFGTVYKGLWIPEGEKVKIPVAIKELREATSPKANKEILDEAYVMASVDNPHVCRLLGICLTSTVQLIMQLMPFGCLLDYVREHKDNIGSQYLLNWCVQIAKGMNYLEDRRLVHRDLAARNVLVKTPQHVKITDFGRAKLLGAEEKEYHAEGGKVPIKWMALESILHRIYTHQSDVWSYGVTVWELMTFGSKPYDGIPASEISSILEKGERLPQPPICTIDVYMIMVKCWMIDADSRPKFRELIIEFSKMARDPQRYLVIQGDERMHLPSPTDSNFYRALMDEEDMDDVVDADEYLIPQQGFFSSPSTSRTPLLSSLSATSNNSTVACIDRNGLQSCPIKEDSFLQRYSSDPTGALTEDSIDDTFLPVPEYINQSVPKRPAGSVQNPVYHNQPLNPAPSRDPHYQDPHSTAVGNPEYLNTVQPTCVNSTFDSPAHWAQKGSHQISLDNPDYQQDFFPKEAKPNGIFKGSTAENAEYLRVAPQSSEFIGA

The molecule `O=C1CCC(Nc2ccc(C3CCN(CC(=O)N4CC5(C4)CN(c4ccc(-c6cc(F)c7c(c6)C(=O)N(C(C(=O)Nc6nccs6)c6ncn8c6CCC8)C7)cc4)C5)CC3(F)F)cc2)C(=O)N1` (single isomer, unassigned) [Compound 51, 2-(6,7-dihydro-5H-pyrrolo[1,2-c]imidazol-1-yl)-2-(6-(4-(6-(2-(4-(4-((2,6-dioxopiperidin-3-yl)amino)phenyl)-3,3-difluoropiperidin-1-yl)acetyl)-2,6-diazaspiro[3.3]heptan-2-yl)phenyl)-4-fluoro-1-oxoisoindolin-2-yl)-N-(thiazol-2-yl)acetamide] gave a DC50 of 0.013 µM. Molecule `O=C1CCC(Nc2ccc(C3CCN(CC(=O)N4CCN(c5ccc(-c6cc(F)c7c(c6)C(=O)N(C(C(=O)Nc6nccs6)c6ncn8c6CCC8)C7)cc5)CC4)CC3)cc2F)C(=O)N1` (stereo not drawn) [Compound 13, 2-(6,7-dihydro-5H-pyrrolo[1,2-c]imidazol-1-yl)-2-[6-[4-[4-[2-[4-[4-[(2,6-dioxo-3-piperidyl)amino]-3-fluoro-phenyl]-1-piperidyl]acetyl]piperazin-1-yl]phenyl]-4-fluoro-1-oxo-isoindolin-2-yl]-N-thiazol-2-yl-acetamide] registered a 50% degradation concentration (DC50) of 0.052 µM. Still for that read-out and setting: the figure for `O=C1CCC(Nc2ccc(C3CCC(CC(=O)N4CCN(c5ccc(-c6cc(F)c7c(c6)C(=O)N(C(C(=O)Nc6nccs6)c6ncn8c6CCC8)C7)cc5)CC4)CC3)cc2)C(=O)N1` (racemic) [Compound 9, (2RS)-2-(6,7-Dihydro-5H-pyrrolo[1,2-c]imidazol-1-yl)-2-[4-fluoro-1-oxo-6-[4-[4-[2-[4-[4-[[(3RS)-2,6-dioxo-3-piperidyl]amino]phenyl]cyclohexyl]acetyl]piperazin-1-yl]phenyl]isoindolin-2-yl]-N-thiazol-2-yl-acetamide] is 0.03 µM; for `O=C1CC[C@@H](Nc2ccc(C3CCN(CC(=O)N4CCN(c5ccc(-c6cc(F)c7c(c6)C(=O)N(C(C(=O)Nc6nccs6)c6ncn8c6CCC8)C7)cc5)CC4)CC3)cc2)C(=O)N1` (stereo partly drawn) [Compound 7, 2-(6,7-dihydro-5H-pyrrolo[1,2-c]imidazol-1-yl)-2-[6-[4-[4-[2-[4-[4-[[(3R)-2,6-dioxo-3-piperidyl]amino]phenyl]-1-piperidyl]acetyl]piperazin-1-yl]phenyl]-4-fluoro-1-oxo-isoindolin-2-yl]-N-thiazol-2-yl-acetamide] it is 0.018 µM. Molecule `O=C1CCC(Nc2cc(F)c(N3CCC(O)(CC(=O)N4CCC5(CC4)CN(c4ccc(-c6cc(F)c7c(c6)C(=O)N(C(C(=O)Nc6nccs6)c6ncn8c6CCC8)C7)cc4)C5)CC3)c(F)c2)C(=O)N1` (stereo not drawn) [Compound 137, 2-(6,7-dihydro-5H-pyrrolo[1,2-c]imidazol-1-yl)-2-[6-[4-[7-[2-[1-[4-[[2,6-dioxo-3-piperidyl]amino]-2,6-difluoro-phenyl]-4-hydroxy-4-piperidyl]acetyl]-2,7-diazaspiro[3.5]nonan-2-yl]phenyl]-4-fluoro-1-oxo-isoindolin-2-yl]-N-thiazol-2-yl-acetamide] had a half-maximal degradation concentration (DC50) (class symbols) of 0.05 to 0.15 µM.

In the case of `O=C1CCC(N2Cc3c(OC4CCN(C(=O)CCCN5CCN(c6ccc(-c7ccc8cn(C(C(=O)Nc9nccs9)c9ncn%10c9CCC%10)nc8c7F)cn6)CC5)CC4)cccc3C2=O)C(=O)N1` (racemic) [Compound 62, (2RS)-2-(6,7-Dihydro-5H-pyrrolo[1,2-c]imidazol-1-yl)-2-[7-fluoro-6-[6-[4-[4-oxo-4-[4-[1-oxo-2-[(3RS)-2,6-dioxo-3-piperidyl]isoindolin-4-yl]oxy-1-piperidyl]butyl]piperazin-1-yl]-3-pyridyl]indazol-2-yl]-N-thiazol-2-yl-acetamide], the half-maximal degradation concentration (DC50) was 0.019 µM. The molecule `O=C1CC[C@H](Nc2ccc(C3CCN(CC(=O)N4CC[C@@H](Oc5ccc(-c6cc(F)c7c(c6)C(=O)N(C(C(=O)Nc6nccs6)c6ncn8c6CCC8)C7)cc5)C4)CC3)cc2)C(=O)N1` (stereo partly drawn) [Compound 41, 2-(6,7-dihydro-5H-pyrrolo[1,2-c]imidazol-1-yl)-2-[6-[4-[(3R)-1-[2-[4-[4-[[(3S)-2,6-dioxo-3-piperidyl]amino]phenyl]-1-piperidyl]acetyl]pyrrolidin-3-yl]oxyphenyl]-4-fluoro-1-oxo-isoindolin-2-yl]-N-thiazol-2-yl-acetamide] returned a DC50 of 0.026 µM. Where the note is “class symbols”, `O=C1CCC(c2ccc(N3CCC(O)(CC(=O)N4CC5(CCN(c6ccc(-c7cc(F)c8c(c7)C(=O)N(C(C(=O)Nc7nccs7)c7ncn9c7CCC9)C8)cc6)CC5)C4)CC3)c(F)c2)C(=O)N1` (stereo not drawn) [Compound 159, 2-(6,7-dihydro-5H-pyrrolo[1,2-c]imidazol-1-yl)-2-[6-[4-[2-[2-[1-[4-(2,6-dioxo-3-piperidyl)-2-fluoro-phenyl]-4-hydroxy-4-piperidyl]acetyl]-2,7-diazaspiro[3.5]nonan-7-yl]phenyl]-4-fluoro-1-oxo-isoindolin-2-yl]-N-thiazol-2-yl-acetamide] showed a DC50 of 0.05 to 0.15 µM. In turn, `O=C1CCC(Nc2ccc(C3CCN(CC(=O)N4CCN(c5ccc(-c6cc(Cl)c7cn(C(C(=O)Nc8nccs8)c8ncn9c8CCC9)nc7c6Cl)cc5)CC4)CC3)cc2)C(=O)N1` (racemic) [Compound 61, (2RS)-2-[4,7-Dichloro-6-[4-[4-[2-[4-[4-[[(3RS)-2,6-dioxo-3-piperidyl]amino]phenyl]-1-piperidyl]acetyl]piperazin-1-yl]phenyl]indazol-2-yl]-2-(6,7-dihydro-5H-pyrrolo[1,2-c]imidazol-1-yl)-N-thiazol-2-yl-acetamide] yielded a 50% degradation concentration (DC50) of 0.112 µM. The same measure, in the same setting: the figure for `O=C1CCC(Nc2ccc(C3CCN(CC(=O)N4CCN(c5ccc(-c6ccc7cn(C(C(=O)Nc8nccs8)c8ncn9c8CCC9)nc7c6F)cn5)CC4)CC3)cc2)C(=O)N1` (racemic) [Compound 63, (2RS)-2-(6,7-Dihydro-5H-pyrrolo[1,2-c]imidazol-1-yl)-2-[7-fluoro-6-[6-[4-[2-[4-[4-[[(3RS)-2,6-dioxo-3-piperidyl]amino]phenyl]-1-piperidyl]acetyl]piperazin-1-yl]-3-pyridyl]indazol-2-yl]-N-thiazol-2-yl-acetamide] is 0.081 µM. Still for that read-out and setting: under `O=C1CCC(Nc2ccc(C3CCN(C(=O)CN4CCC(c5ccc(-c6cc(F)c7c(c6)C(=O)N(C(C(=O)Nc6nccs6)c6ncn8c6CCC8)C7)cc5)CC4)CC3)cc2)C(=O)N1` (stereo not drawn) [Compound 26, 2-(6,7-dihydro-5H-pyrrolo[1,2-c]imidazol-1-yl)-2-[6-[4-[1-[2-[4-[4-[(2,6-dioxo-3-piperidyl)amino]phenyl]-1-piperidyl]-2-oxo-ethyl]-4-piperidyl]phenyl]-4-fluoro-1-oxo-isoindolin-2-yl]-N-thiazol-2-yl-acetamide] stands 0.026 µM. Same read-out and setting: under `O=C1CCC(Nc2ccc(C3CCN(C(=O)CCCN4CCN(c5ccc(-c6cc(F)c7c(c6)C(=O)N(C(C(=O)Nc6nccs6)c6ncn8c6CCC8)C7)cc5)CC4)CC3)cc2)C(=O)N1` (racemic) [Compound 8, (2RS)-2-(6,7-Dihydro-5H-pyrrolo[1,2-c]imidazol-1-yl)-2-[4-fluoro-1-oxo-6-[4-[4-[4-oxo-4-[4-[4-[[(3RS)-2,6-dioxo-3-piperidyl]amino]phenyl]-1-piperidyl]butyl]piperazin-1-yl]phenyl]isoindolin-2-yl]-N-thiazol-2-yl-acetamide] stands 0.017 µM; under `O=C1CC[C@H](Nc2ccc(C3CCN(CC(=O)N4CCC(Oc5ccc(-c6cc(F)c7c(c6)C(=O)N(C(C(=O)Nc6nccs6)c6ncn8c6CCC8)C7)cc5)CC4)CC3)c(F)c2)C(=O)N1` (stereo partly drawn) [Compound 39, 2-(6,7-dihydro-5H-pyrrolo[1,2-c]imidazol-1-yl)-2-(6-(4-((1-(2-(4-(4-(((S)-2,6-dioxopiperidin-3-yl)amino)-2-fluorophenyl)piperidin-1-yl)acetyl)piperidin-4-yl)oxy)phenyl)-4-fluoro-1-oxoisoindolin-2-yl)-N-(thiazol-2-yl)acetamide], 0.088 µM. As to `Cn1nc(N2CCC(=O)NC2=O)c2ccc(C3CCN(CC(=O)N4CC5(C4)CN(c4ccc(-c6cc(F)c7c(c6)C(=O)N(C(C(=O)Nc6ccccn6)c6ncn8c6CCC8)C7)cc4)C5)CC3(F)F)cc21` (stereo not drawn) [Compound 55, 2-(6,7-dihydro-5H-pyrrolo[1,2-c]imidazol-1-yl)-2-[6-[4-[2-[2-[4-[3-(2,4-dioxohexahydropyrimidin-1-yl)-1-methyl-indazol-6-yl]-3,3-difluoro-1-piperidyl]acetyl]-2,6-diazaspiro[3.3]heptan-6-yl]phenyl]-4-fluoro-1-oxo-isoindolin-2-yl]-N-(2-pyridyl)acetamide], the 50% degradation concentration (DC50) was 0.011 µM.

As to `Cn1nc(N2CCC(=O)NC2=O)c2ccc(C3CCN(CC(=O)N4CC5(C4)CN(c4ccc(-c6cc(F)c7c(c6)C(=O)N(C(C(=O)Nc6nccs6)c6ncn8c6CCC8)C7)cc4)C5)CC3(F)F)cc21` (stereo not drawn) [Compound 50, 2-(6,7-dihydro-5H-pyrrolo[1,2-c]imidazol-1-yl)-2-[6-[4-[2-[2-[4-[3-(2,4-dioxohexahydropyrimidin-1-yl)-1-methyl-indazol-6-yl]-3,3-difluoro-1-piperidyl]acetyl]-2,6-diazaspiro[3.3]heptan-6-yl]phenyl]-4-fluoro-1-oxo-isoindolin-2-yl]-N-thiazol-2-yl-acetamide], the DC50 is 0.01 µM.

The record behind these values is patent publication US12486290B2, “Isoindolinone and indazole compounds for the degradation of EGFR” (C4 THERAPEUTICS, INC., priority 2019, dated 2025).
